Literature values, collected in patent publication US20240189459A1, “METASTABLE-FREE LANTHANIDE BASED CONTRAST AGENTS AND METHOD” (Inventure LLC, priority 2022, published 2024).

Conditions: thermodynamic stability constant of the DOTA complex with the listed metal ion

Stability Constant	Compound
17.2	O=C([O-])CN1CCN(CC(=O)[O-])CCN(CC(=O)O)CCN(CC(=O)O)CC1.[Ca+2] [Ca^+2]
22.3	O=C([O-])CN1CCN(CC(=O)[O-])CCN(CC(=O)[O-])CCN(CC(=O)[O-])CC1.[Cu+2] [Cu^+2]
24.8	O=C([O-])CN1CCN(CC(=O)[O-])CCN(CC(=O)[O-])CCN(CC(=O)[O-])CC1.[Dy+3] [Dy^+3]
23.5	O=C([O-])CN1CCN(CC(=O)[O-])CCN(CC(=O)[O-])CCN(CC(=O)[O-])CC1.[Eu+3] [Eu^+3]
29.4	O=C([O-])CN1CCN(CC(=O)[O-])CCN(CC(=O)[O-])CCN(CC(=O)[O-])CC1.[Fe+3] [Fe^+3]
24.7	O=C([O-])CN1CCN(CC(=O)[O-])CCN(CC(=O)[O-])CCN(CC(=O)[O-])CC1.[Gd+3] [Gd^+3]
11.9	O=C([O-])CN1CCN(CC(=O)[O-])CCN(CC(=O)O)CCN(CC(=O)O)CC1.[Mg+2] [Mg^+2]
4.2	O=C([O-])CN1CCN(CC(=O)O)CCN(CC(=O)O)CCN(CC(=O)O)CC1.[Na+] [Na^+1]
23	O=C([O-])CN1CCN(CC(=O)[O-])CCN(CC(=O)[O-])CCN(CC(=O)[O-])CC1.[Pr+3] [Pr^+3]
24.4	O=C([O-])CN1CCN(CC(=O)[O-])CCN(CC(=O)[O-])CCN(CC(=O)[O-])CC1.[Tm+3] [TM^+3]
20.8	O=C([O-])CN1CCN(CC(=O)[O-])CCN(CC(=O)O)CCN(CC(=O)O)CC1.[Zn+2] [Zn^+2]
